Measured values: patent US20260070945A1, “MACROCYCLIC IMMUNOMODULATORS” (Bristol-Myers Squibb Company, priority 2022, published 2026)
*1 amine or outer side, *2 acyl side, *3 side chain or, on linkers, in order; H or OH if unused. Where a SMILES comes first, the peptide text is derived from it. Bridges are numbered along the chain shown (N, C = ends). [ ]: non-standard residue; d: D form. The star is where a group is joined. Phe(4-COOH) = N[C@@H](Cc1ccc(C(=O)O)cc1)C(=O)O; Bip = N[C@@H](Cc1ccc(-c2ccccc2)cc1)C(=O)O; Phe(4-CN) = N#Cc1ccc(C[C@H](N)C(=O)O)cc1; Phe(3-Me) = Cc1cccc(C[C@H](N)C(=O)O)c1; γGlu = O=C(O)[C@H](CCC(=O)[*:2])N[*:1]; Val(3-OH) = CC(C)(O)[C@H](N)C(=O)O; 4Pal = N[C@@H](Cc1ccncc1)C(=O)O; Cha = N[C@@H](CC1CCCCC1)C(=O)O; Carboxymethyl = O=C(O)C*; NMeA = CN[C@@H](C)C(=O)O; Aun = NCCCCCCCCCCC(=O)O; Dab = NCC[C@H](N)C(=O)O; AEEA = NCCOCCOCC(=O)O

Target: T1, PD-1/PD-L1 interaction (PE-labeled human PD-L1-Ig binding to Jurkat cell line over-expressing human PD-1) (Homo sapiens, UniProt Q15116)
T1 construct: expressed in transfected cells; host or cells: Jurkat
T1 sequence (Q15116 25-288): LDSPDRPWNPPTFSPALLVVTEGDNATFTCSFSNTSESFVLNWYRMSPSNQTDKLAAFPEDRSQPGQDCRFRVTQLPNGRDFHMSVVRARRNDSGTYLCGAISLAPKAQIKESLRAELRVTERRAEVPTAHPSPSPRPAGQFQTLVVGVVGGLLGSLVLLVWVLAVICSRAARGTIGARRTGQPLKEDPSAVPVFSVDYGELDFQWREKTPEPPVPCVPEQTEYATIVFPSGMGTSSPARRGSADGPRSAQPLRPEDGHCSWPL
Assay: Jurkat-PD-1 Cell Binding High-Content Screening Assay (CBA)
Settings: Jurkat-hPD-1 cells, PE-labeled PD-L1-Ig 20 nM final; read-out: Jurkat HPD1 PDL1 IC50
Experimental: Example 2: Jurkat-PD-1 Cell Binding High-Content Screening Assay (CBA)
Phycoerythrin (PE) was covalently linked to the Ig epitope tag of human PD-L1-Ig and fluorescently-labeled PD-L1-Ig was used for binding studies with a Jurkat cell line over-expressing human PD-1 (Jurkat-PD-1). Briefly, 8×10^3 Jurkat-hPD-1 cells were seeded into 384 well plates in 20 μl of DMEM supplemented with 10% fetal calf serum. 100 nl of compound was added to cells followed by incubation at 37° C. for 2 hours. Then, 5 μl of PE-labeled PD-L1-Ig (20 nM final), diluted in DMEM supplemented with 10% fetal calf serum. After 1 hour incubation, cells were fixed with […] in dPBS containing 10 μg/ml Hoechst 33342 and then washed 3× in 100 μl dPBS. Data was collected and processed using a Cell Insight NXT High Content Imager and associated software.

| Compound | IC50 [nM] |
| --- | --- |
| CC(C)C[C@@H]1NC(=O)[C@H](Cc2c[nH]c3ccccc23)NC(=O)[C@H](CC(=O)O)NC(=O)[C@H](Cc2ccc(C(=O)O)cc2)NC(=O)[C@H](Cc2ccc(OCC(=O)O)cc2)NC(=O)CSC[C@@H](C(=O)N[C@@H](CCN)C(=O)NCCCCCCCCCCC(=O)O)NC(=O)[C@H](CCC(N)=O)NC(=O)[C@H](C(C)C)NC(=O)[C@H](CC2CCCCC2)NC(=O)[C@H](CCN)NC(=O)[C@@H](CC(C)C)NC(=O)[C@H](C)N(C)C(=O)[C@H](C(C)C)NC(=O)[C@H](Cc2ccc(-c3ccccc3)cc2)NC1=O [Example 1000] ({CH2CO}-Y(Carboxymethyl)[Phe(4-COOH)]DWL[Bip]V[NMeA][dL][Dab][Cha]VQC[Dab][Aun]-OH; thioether N-14) | 23.4 |
| Cc1cccc(C[C@@H]2NC(=O)[C@H](CC(=O)O)NC(=O)[C@H](Cc3ccc(C(=O)O)cc3)NC(=O)[C@H](Cc3ccc(OCC(=O)O)cc3)NC(=O)CSC[C@@H](C(=O)N[C@@H](CC(=O)O)C(=O)NCCCCCCCCCCC(=O)O)NC(=O)[C@H](CO)NC(=O)[C@H](C(C)C)NC(=O)[C@H](CC(C)C)NC(=O)[C@H](CC(N)=O)NC(=O)[C@@H](CC(C)C)NC(=O)[C@H](C)N(C)C(=O)[C@H](C(C)C)NC(=O)[C@H](Cc3ccc(-c4ccccc4)cc3)NC(=O)[C@H](CC(C)C)NC2=O)c1 [Example 1001] ({CH2CO}-Y(Carboxymethyl)[Phe(4-COOH)]D[Phe(3-Me)]L[Bip]V[NMeA][dL]NLVSCD[Aun]-OH; thioether N-14 (inferred)) | 92.1 |
| Cc1cccc(C[C@@H]2NC(=O)[C@H](CC(=O)O)NC(=O)[C@H](Cc3ccc(C(=O)O)cc3)NC(=O)[C@H](Cc3ccc(C#N)cc3)NC(=O)CSC[C@@H](C(=O)N[C@@H](CCN)C(=O)NCCCCCCCCCCC(=O)O)NC(=O)[C@H](CO)NC(=O)[C@H](C(C)(C)O)NC(=O)[C@H](CC3CCCCC3)NC(=O)[C@H](CCN)NC(=O)[C@@H](CC(C)C)NC(=O)[C@H](C)N(C)C(=O)[C@H](Cc3ccc(OCC(=O)O)cc3)NC(=O)[C@H](Cc3ccc(-c4ccccc4)cc3)NC(=O)[C@H](Cc3ccc(OCC(=O)O)cc3)NC2=O)c1 [Example 1002] ({CH2CO}-[Phe(4-CN)][Phe(4-COOH)]D[Phe(3-Me)]Y(Carboxymethyl)[Bip]Y(Carboxymethyl)[NMeA][dL][Dab][Cha][Val(3-OH)]SC[Dab][Aun]-OH; thioether N-14) | 11 |
| Cc1cccc(C[C@@H]2NC(=O)[C@H](CC(=O)O)NC(=O)[C@H](Cc3ccc(C(=O)O)cc3)NC(=O)[C@H](Cc3ccc(OCC(=O)O)cc3)NC(=O)CSC[C@@H](C(=O)N[C@@H](CCC(=O)O)C(=O)NCCCCCCCCCCC(=O)O)NC(=O)[C@H](CO)NC(=O)[C@H](C(C)C)NC(=O)[C@H](CC(C)C)NC(=O)[C@H](CC(N)=O)NC(=O)[C@@H](CC(C)C)NC(=O)[C@H](C)N(C)C(=O)[C@H](C(C)C)NC(=O)[C@H](Cc3ccc(-c4ccccc4)cc3)NC(=O)[C@H](CC(C)C)NC2=O)c1 [Example 1003] ({CH2CO}-Y(Carboxymethyl)[Phe(4-COOH)]D[Phe(3-Me)]L[Bip]V[NMeA][dL]NLVSCE[Aun]-OH; thioether N-14) | 20.1 |
| Cc1cccc(C[C@@H]2NC(=O)[C@H](CC(=O)O)NC(=O)[C@H](Cc3ccc(C(=O)O)cc3)NC(=O)[C@H](Cc3ccc(OCC(=O)O)cc3)NC(=O)CSC[C@@H](C(=O)NCC(=O)N[C@@H](CCC(=O)O)C(=O)NCCCCCCCCCCC(=O)O)NC(=O)[C@H](CO)NC(=O)[C@H](C(C)C)NC(=O)[C@H](CC(C)C)NC(=O)[C@H](CC(N)=O)NC(=O)[C@@H](CC(C)C)NC(=O)[C@H](C)N(C)C(=O)[C@H](C(C)C)NC(=O)[C@H](Cc3ccc(-c4ccccc4)cc3)NC(=O)[C@H](CC(C)C)NC2=O)c1 [Example 1005] ({CH2CO}-Y(Carboxymethyl)[Phe(4-COOH)]D[Phe(3-Me)]L[Bip]V[NMeA][dL]NLVSCGE[Aun]-OH; thioether N-14) | 49.5 |
| Cc1cccc(C[C@@H]2NC(=O)[C@H](CC(=O)O)NC(=O)[C@H](Cc3ccc(C(=O)O)cc3)NC(=O)[C@H](Cc3ccc(OCC(=O)O)cc3)NC(=O)CSC[C@@H](C(=O)NCCCCCCCCCCC(=O)O)NC(=O)[C@H](CO)NC(=O)[C@H](C(C)C)NC(=O)[C@H](CC(C)C)NC(=O)[C@H](CC(N)=O)NC(=O)[C@@H](CC(C)C)NC(=O)[C@H](C)N(C)C(=O)[C@H](C(C)C)NC(=O)[C@H](Cc3ccc(-c4ccccc4)cc3)NC(=O)[C@H](CC(C)C)NC2=O)c1 [Example 1007] ({CH2CO}-Y(Carboxymethyl)[Phe(4-COOH)]D[Phe(3-Me)]L[Bip]V[NMeA][dL]NLVSC[Aun]-OH; thioether N-14) | 111 |
| Cc1cccc(C[C@@H]2NC(=O)[C@H](CC(=O)O)NC(=O)[C@H](Cc3ccc(C(=O)O)cc3)NC(=O)[C@H](Cc3ccc(OCC(=O)O)cc3)NC(=O)CSC[C@@H](C(=O)NCC(=O)NCCOCCOCC(=O)NCCCCCCCCCCC(=O)O)NC(=O)[C@H](CO)NC(=O)[C@H](C(C)C)NC(=O)[C@H](CC(C)C)NC(=O)[C@H](CC(N)=O)NC(=O)[C@@H](CC(C)C)NC(=O)[C@H](C)N(C)C(=O)[C@H](C(C)C)NC(=O)[C@H](Cc3ccc(-c4ccccc4)cc3)NC(=O)[C@H](CC(C)C)NC2=O)c1 [Example 1011] ({CH2CO}-Y(Carboxymethyl)[Phe(4-COOH)]D[Phe(3-Me)]L[Bip]V[NMeA][dL]NLVSCG[AEEA][Aun]-OH; thioether N-14) | 24.6 |

Results, then the compound that gave them:

| IC50 [nM] | Compound |
| --- | --- |
| 36.5 | Cc1cccc(C[C@@H]2NC(=O)[C@H](CC(=O)O)NC(=O)[C@H](Cc3ccc(C(=O)O)cc3)NC(=O)[C@H](Cc3ccc(OCC(=O)O)cc3)NC(=O)CSC[C@@H](C(=O)NCC(=O)N[C@@H](CCC(=O)O)C(=O)NCCOCCOCC(=O)N[C@@H](CCC(=O)NCCCCCCCCCCC(=O)O)C(=O)O)NC(=O)[C@H](CO)NC(=O)[C@H](C(C)C)NC(=O)[C@H](CC(C)C)NC(=O)[C@H](CC(N)=O)NC(=O)[C@@H](CC(C)C)NC(=O)[C@H](C)N(C)C(=O)[C@H](C(C)C)NC(=O)[C@H](Cc3ccc(-c4ccccc4)cc3)NC(=O)[C@H](CC(C)C)NC2=O)c1 [Example 1013] ({CH2CO}-Y(Carboxymethyl)[Phe(4-COOH)]D[Phe(3-Me)]L[Bip]V[NMeA][dL]NLVSCGE[AEEA][γGlu][Aun]-OH; thioether N-14) |
| 48.5 | Cc1cccc(C[C@@H]2NC(=O)[C@H](CC(=O)O)NC(=O)[C@H](Cc3ccc(C(=O)O)cc3)NC(=O)[C@H](Cc3ccc(OCC(=O)O)cc3)NC(=O)CSC[C@@H](C(=O)NCC(=O)N[C@@H](CCC(=O)NCCOCCOCC(=O)N[C@@H](CC(=O)O)C(=O)NCCCCCCCCCCC(=O)O)C(=O)O)NC(=O)[C@H](CO)NC(=O)[C@H](C(C)C)NC(=O)[C@H](CC(C)C)NC(=O)[C@H](CC(N)=O)NC(=O)[C@@H](CC(C)C)NC(=O)[C@H](C)N(C)C(=O)[C@H](C(C)C)NC(=O)[C@H](Cc3ccc(-c4ccccc4)cc3)NC(=O)[C@H](CC(C)C)NC2=O)c1 [Example 1014] ({CH2CO}-Y(Carboxymethyl)[Phe(4-COOH)]D[Phe(3-Me)]L[Bip]V[NMeA][dL]NLVSCG[γGlu][AEEA]D[Aun]-OH; thioether N-14) |
| 54.1 | Cc1cccc(C[C@@H]2NC(=O)[C@H](CC(=O)O)NC(=O)[C@H](Cc3ccc(C(=O)O)cc3)NC(=O)[C@H](Cc3ccc(OCC(=O)O)cc3)NC(=O)CSC[C@@H](C(=O)NCC(=O)N[C@@H](CCC(=O)NCCOCCOCC(=O)N[C@@H](CCC(=O)O)C(=O)NCCCCCCCCCCC(=O)O)C(=O)O)NC(=O)[C@H](CO)NC(=O)[C@H](C(C)C)NC(=O)[C@H](CC(C)C)NC(=O)[C@H](CC(N)=O)NC(=O)[C@@H](CC(C)C)NC(=O)[C@H](C)N(C)C(=O)[C@H](C(C)C)NC(=O)[C@H](Cc3ccc(-c4ccccc4)cc3)NC(=O)[C@H](CC(C)C)NC2=O)c1 [Example 1015] ({CH2CO}-Y(Carboxymethyl)[Phe(4-COOH)]D[Phe(3-Me)]L[Bip]V[NMeA][dL]NLVSCG[γGlu][AEEA]E[Aun]-OH; thioether N-14) |
| 29.8 | Cc1cccc(C[C@@H]2NC(=O)[C@H](CC(=O)O)NC(=O)[C@H](Cc3ccncc3)NC(=O)[C@H](Cc3ccc(OCC(=O)O)cc3)NC(=O)CSC[C@@H](C(=O)NCC(=O)N[C@@H](CCC(=O)NCCOCCOCC(=O)N[C@@H](CCC(=O)NCCOCCOCC(=O)NCCCCCCCCCCC(=O)O)C(=O)O)C(=O)O)NC(=O)[C@H](CO)NC(=O)[C@H](C(C)C)NC(=O)[C@H](CC(C)C)NC(=O)[C@H](CC(N)=O)NC(=O)[C@@H](CC(C)C)NC(=O)[C@H](C)N(C)C(=O)[C@H](C(C)C)NC(=O)[C@H](Cc3ccc(-c4ccccc4)cc3)NC(=O)[C@H](CC(C)C)NC2=O)c1 [Example 1016] ({CH2CO}-Y(Carboxymethyl)[4Pal]D[Phe(3-Me)]L[Bip]V[NMeA][dL]NLVSCG[γGlu][AEEA][γGlu][AEEA][Aun]-OH; thioether N-14) |

Same assay, conditions: PE-labeled PD-L1-Ig 20 nM final, Jurkat-hPD-1 cells; read-out: Jurkat HPD1 PDL1 IC50

| IC50 [nM] | Compound |
| --- | --- |
| 11.4 | CC(=O)NCCCC[C@@H]1NC(=O)[C@H](C(C)(C)O)NC(=O)[C@H](CC2CCCCC2)NC(=O)[C@H](CCN)NC(=O)[C@@H](CC(C)C)NC(=O)[C@H](C)N(C)C(=O)[C@H](Cc2ccc(C(=O)O)cc2)NC(=O)[C@H](Cc2ccc(-c3ccccc3)cc2)NC(=O)[C@H](Cc2ccc(C(=O)O)cc2)NC(=O)[C@H](Cc2cccc(C)c2)NC(=O)[C@H](CC(=O)O)NC(=O)[C@H](Cc2ccc(OCC(=O)O)cc2)NC(=O)[C@H](C(C)O)NC(=O)CSC[C@@H](C(=O)N[C@@H](CCN)C(=O)NCCOCCOCC(=O)N[C@@H](CCC(=O)NCCCCCCCCCCCCC(=O)O)C(=O)O)NC1=O (mixture of isomers) [Example 2659] |
